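Growth conditions: 96-well plates. Treatment: test compound, 48 hours, 5 concentrations. Analysis: linear interpolation between bracketing concentrations; unreached endpoints set to highest concentration. Here, GI50 denotes the concentration required for 50% inhibition of growth. At the TGI there is no net growth.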
How the values were obtained:
Assay in all cases: growth of human tumour cells (NCI), 48 h
A498 renal = system: A498 renal
MDA-MB-435 = system: MDA-MB-435
OVCAR-5 ovarian = system: OVCAR-5 ovarian
RXF 393 renal = system: RXF 393 renal
SK-MEL-5 melanoma = system: SK-MEL-5 melanoma
SNB-75 CNS = system: SNB-75 CNS
SW-620 colon = system: SW-620 colon
T-47D breast = system: T-47D breast
U251 CNS = system: U251 CNS
UO-31 renal = system: UO-31 renal

| Structure (SMILES) | GI50 (A498 renal) [µM] | TGI (A498 renal) [µM] | GI50 (MDA-MB-435) [µM] | TGI (MDA-MB-435) [µM] | GI50 (OVCAR-5 ovarian) [µM] | TGI (OVCAR-5 ovarian) [µM] | GI50 (RXF 393 renal) [µM] | TGI (RXF 393 renal) [µM] | GI50 (SK-MEL-5 melanoma) [µM] | TGI (SK-MEL-5 melanoma) [µM] | GI50 (SNB-75 CNS) [µM] | TGI (SNB-75 CNS) [µM] | GI50 (SW-620 colon) [µM] | TGI (SW-620 colon) [µM] | GI50 (T-47D breast) [µM] | TGI (T-47D breast) [µM] | GI50 (U251 CNS) [µM] | TGI (U251 CNS) [µM] | GI50 (UO-31 renal) [µM] | TGI (UO-31 renal) [µM] |
| --- | --- | --- | --- | --- | --- | --- | --- | --- | --- | --- | --- | --- | --- | --- | --- | --- | --- | --- | --- | --- |
| c1cncc(C2Nc3cccc4cccc(c34)N2)c1 | 30.9 | > 100 | 35.7 | > 100 | 88.7 | > 100 | 16.8 | 33 | 66.3 | > 100 | 17.9 | > 100 | 18.4 | 36.3 | 2.62 | 9.29 | 21.9 | 54 | 11.7 | 27.4 |
| Cc1[nH]nc2c1N=C(c1ccccc1F)c1cc(C(N)=O)ccc1N2 | 1.08 | 6.02 | 7.35 | > 25 | 9.61 | > 22.3 | 0.975 | 6.15 | 3.11 | 9.03 | 0.0838 | 1.69 | 2.34 | > 25 | 2.89 | > 15.8 | 0.71 | 10.2 | 4.31 | > 21.1 |
| CCc1cc2ncc(CN3CCN(c4ccc(C(=O)NC)nc4)CC3)cc2[nH]c1=O | > 100 | > 100 | 85.8 | > 100 | > 100 | > 100 | 17 | > 100 | 30.4 | > 100 | 18 | > 100 | > 100 | > 100 | 28.2 | > 100 | > 100 | > 100 | 29.5 | > 100 |
| CN1CCN(Cc2ccc(NC(=O)c3cncc(C#Cc4cncc5nccnc45)c3)cc2C(F)(F)F)CC1 | 0.772 | 3.22 | 1.34 | 7.3 | 2.15 | 32.8 | 2.21 | 7.47 | 2.61 | 8.63 | 5.04 | 11.5 | 0.878 | 7.7 | 5.61 | 14.9 | 5.67 | 13 | 2.16 | > 50 |
| COC(=O)/C=C1/SC(N2N=C(c3cccs3)CC2c2ccc(F)cc2)=NC1=O (stereo not drawn) | 1.81 | 6.26 | 2.13 | 4.8 | 2.46 | 5.21 | 1.73 | 3.26 | 1.78 | 3.36 | 1.64 | 7.28 | 2.16 | 5 | 3.27 | 8.31 | 1.89 | 3.69 | 1.49 | 2.9 |
| COc1ccc2c(Cl)cc(NC(=O)Nc3c(C)cccc3C)nc2c1 | 2.9 | 22.4 | 13.4 | 40.5 | > 100 | > 100 | 4.97 | 24.8 | 18.1 | > 100 | 1.47 | 6.01 | 38.9 | > 100 | 22.5 | > 100 | 13.7 | 39.2 | 3 | 12.7 |
| COc1cc(N2CCN(C(C)C)CC2)ccc1Nc1nc(Nc2cccc(F)c2C(=O)O)c2cc[nH]c2n1 | > 25 | > 25 | > 25 | > 25 | > 25 | > 25 | > 25 | > 25 | > 25 | > 25 | > 25 | > 25 | > 25 | > 25 | > 25 | > 25 | > 25 | > 25 | > 25 | > 25 |
| Cc1ccc(C2=Nc3c(N)ncnc3NC(c3ccc4c(c3)OCO4)C2)cc1 (stereo not drawn) | 6.33 | 35.2 | 1.15 | 4.12 | 32.1 | > 100 | 3.5 | 23.1 | 3.85 | 37.5 | 4.55 | 37.2 | 3.56 | 16.8 | 5.72 | > 100 | 4.55 | 16.3 | 10.8 | 26.5 |
| N=C(N)c1ccc(NCCOCCNc2ccc(C(=N)N)cc2)cc1 | 17 | 94.6 | 81.3 | > 100 | > 100 | > 100 | – | – | 25.5 | 89.4 | 19.2 | 81.3 | 63.6 | > 100 | 7.17 | 75.6 | 35.9 | > 100 | 47.2 | > 100 |
